# Earlier results, collected in patent publication US11202772B2, “Duloxetine sprinkles” (priority 2016, dated 2021).
smiles,measurement,setting,value
"CNCCC(Oc1cccc2ccccc12)c1cccs1 (single isomer, unassigned; (+)) [Duloxetine, (+)-N-methyl-3-(1-naphthalenyloxy)-3-(2-thienyl)propan-1-amine]",drug in the dosage hydrolyzed to 1-naphthol,pH 1.0,50%
same,drug degrades to 1-naphthol,"pH of 2.0, in one hour",10%
same,time for 10% degradation,pH of 4.0,up to 63 hours
